From patent US12310967B2, “Compositions and methods of treatment for neurological disorders comprising motor neuron diseases” (Gliapharm SA, priority 2017, dated 2025)

What was measured:
primary astrocytes [1] = experiment: High throughput screening (HTS) for lactate secretion: acidification of extracellular medium (SNARF5); type: cell-based, mouse; design: key to Score / HTS Score (SNARF5) / Score_SNARF: fraction of plate positive-control activity (1 = 100%); conditions: for Score / Score_SNARF: Appendix I; for Score: CDC54K primary screening, relative to CCCP 2 uM; for Score / HTS Score (SNARF5): 10 uM, 90 min; for Score_SNARF: primary screening confirmation (SNARF5); for HTS Score (SNARF5): CDC54K library, relative to positive control CCCP 2 uM
How it was run: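 Mouse primary cortical astrocytes (DIV17) exposed to compounds at 10 uM final (1% DMSO) for 90 min in low-bicarbonate medium with SNARF-5F. Extracellular pH from 630/580 nm emission ratio (ex 480 nm); hits scored as % of CCCP 2 uM positive control, duplicate plates.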

primary astrocytes [2] = experiment: Intracellular glycogen quantification; type: cell-based, mouse; conditions: CDC54K hits, 10 μM, 3 h
Description: For glycogen dosage, a protein dosage was first performed in order to assess whether harvested astrocytes from primary cell cultures yielded enough and equivalent amounts of proteins comparing each replicate, and to ensure that the obtained differences in glycogen quantities were due to drug action and not to inner protein quantities.
Astrocytes used for these dosages were previously grown in 6-well plates for 17 days and stimulated with Vehicle (DMSO) or drug of interest (1 μM to 100 μM) for 180 min, at 37° C. 5% CO2/95% air in D5030 complete medium. Medium was removed and replaced with 600 μl of 30 mM Tris HCl, and stored at −20° C.
Proteins were dosed using the micro BCA Protein Assay kit (Thermo Scientific), as described in the manufacturer's instructions. Briefly, thawed cells were sonicated and 5 μl aliquots were placed in a transparent 96-well plate, to which we added 25 μl 30 mM Tris HCl, 70 μl H2O and 100 μl of a BCA mix (made as described in manufacturer's guidelines). After a 120 min-incubation at 37° C., absorbance was measured with Safire 2 spectrophotometer at a wavelength of 562 nm, and protein quantities were determined from a standard curve of Bovine Serum Albumin (BSA).
Glycogen was quantified using a 250 μl-aliquot of the same stimulated, thawed, and sonicated cells. After an incubation period of 30 min at 90° C. and 400 rpm, 28 μl of an acetic acid/sodium acetate (both from Sigma) 0.1M pH 4.6 buffer was added to each aliquot, which was then separated in two. Each split aliquot received whether 5 μl of amyloglucosidase (Roche) or 5 μl H2O, and all cell solutions were incubated for 120 min in a shaking 37° C.-waterbath. After a centrifugation at 16'000G for 5 min, 20 μl of supernatant were placed 96-well plate, to which 150 μl of a mix containing 0.67 mM ATP (Roche), 0.67 mM NADP (Roche), 1.8% hexokinase/glucose-6-phosphate dehydrogenase (Roche) and 0.1M Tris Buffer-HCl/3.3 mM magnesium (Fluka)/pH 8.1 buffer was added. Fluorescence was measured with Safire 2 spectrophotometer (340 nm excitation/440 nm emission). Glycogen concentration was obtained by substracting glucose value of samples with amyloglucosidase to samples without amyloglucosidase, and were expressed relative to the amount of proteins previously determined.
Levels of intracellular glycogen in astrocytes were measured at 3 h after stimulation with 20 Hits from the Prestwick library (10 μM each), as shown in FIG. 2. n=6-10; Ctrl pos. is glutamate (0.5 mM). Statistical analysis consisted in ANOVA followed by Fisher LSD post-hoc test for pair-wise comparisons.
Statistical analysis consisted in ANOVA followed by Fisher LSD post-hoc test for pair-wise comparisons.

SMILES	Score (primary astrocytes [1])	Score_SNARF (primary astrocytes [1])	HTS Score (SNARF5) (primary astrocytes [1])	Glycogen (statistical significance of glycogen degradation) (primary astrocytes [2])
Cc1nc2ccc(NS(=O)(=O)c3cccc(F)c3)cc2s1 [T6937001]	0.8094	0.8557	0.809	ns
CCc1ccc(S(=O)(=O)N2CCSC2c2ccc(OC)c(OC)c2)cc1 (stereo not drawn) [T5463586]	0.7707	0.5553	0.77	*** (*** p<0.001)
COc1cc(C)c(Cl)cc1S(=O)(=O)NCc1ccncc1 [T5580243]	0.8528	0.8565	0.853	ns
O=C1CCCN1c1ccc(S(=O)(=O)Nc2cccc(/C=C/c3ccccn3)c2)cc1 [T5644989]	0.6796	0.8385	0.68	** (** p<0.01)
CSc1cccc(NS(=O)(=O)c2ccc3onc(C(=O)N4CCCC4)c3c2)c1 [L995-0125]	0.8545	0.8016	0.854	ns
N#Cc1ccc(C(=O)N2CCC(Nc3ncnc4c3CCC4)C2)cc1 (stereo not drawn) [T636-2387]	–	0.4809	0.445	ns
c1ccc2c(c1)CCN(c1ncnc3sccc13)C2 [T0517-8250]	–	0.9124	–	ns
CC(=O)N1CCc2sc(S(=O)(=O)N3CCN(c4ccccc4C)CC3)cc2C1 [P025-0159]	0.9535	0.8007	0.953	ns
CCc1ccc(S(=O)(=O)Nc2ccc3[nH]ncc3c2)cc1 [T5599014]	0.5424	0.5778	0.542	ns
Cc1ccccc1NC(=O)C1CCCN(c2ncnc3oc(C)c(C)c23)C1 (stereo not drawn) [F228-0422]	1.057	0.7702	1.058	** (** p<0.01)
CCn1nccc1-c1csc(S(=O)(=O)Nc2ccc(Cl)cc2F)c1 [L924-1031]	0.9286	0.8713	0.929	** (** p<0.01)
CCc1nc(-c2csc(S(=O)(=O)NCc3ccc4c(c3)OCO4)c2)no1 [L287-0468]	0.5971	0.6592	0.597	** (** p<0.01)
